Values of other authors in paper PMC9597602, “Metal Complexes as Antifungals? From a Crowd-Sourced Compound Library to the First In Vivo Experiments” (JACS Au, 2022).

System: MRSA
Set-up: method as in PMID 34018686
Conditions: G. mellonella infected with MRSA; cited from earlier work

## C1=CCCC=CCC1.[Cl][Pt][Cl] [Pt1]
  reduction in bacterial load: did not elicit a significant reduction in bacterial load
